Reference: ChEMBL document CHEMBL1134754, “Influence of the terminal amide fragment geometry in some 3-arylideneindolin-2(1H)-ones on their 5-HT1A/5-HT2A receptor activity” (Bioorg Med Chem Lett, 2001)

Assays:
[1] = target: T1, 5-hydroxytryptamine receptor 1A (Rattus norvegicus, UniProt P19327); experiment: Displacement of [3H]8-OH-DPAT from 5-hydroxytryptamine 1A receptor of rat hippocampus; format: tissue-based
T1 sequence (P19327 whole entry): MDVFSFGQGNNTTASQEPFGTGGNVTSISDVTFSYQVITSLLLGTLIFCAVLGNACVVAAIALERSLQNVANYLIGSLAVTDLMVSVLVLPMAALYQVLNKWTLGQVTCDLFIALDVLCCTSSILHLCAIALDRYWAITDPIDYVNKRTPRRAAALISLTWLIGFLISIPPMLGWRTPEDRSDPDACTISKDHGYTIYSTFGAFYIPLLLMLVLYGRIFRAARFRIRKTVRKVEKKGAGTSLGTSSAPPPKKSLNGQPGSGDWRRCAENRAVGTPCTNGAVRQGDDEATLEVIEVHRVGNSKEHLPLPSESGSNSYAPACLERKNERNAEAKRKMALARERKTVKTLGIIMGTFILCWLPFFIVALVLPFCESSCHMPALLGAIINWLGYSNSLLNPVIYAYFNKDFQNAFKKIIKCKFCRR

Mus musculus = experiment: In vivo effective dose required for inhibiting (+/-)-DOI-induced (2.5 mg/kg, ip) twitches in mice; format: functional
[2] = target: 5-hydroxytryptamine receptor 2A (Rattus norvegicus, UniProt P14842); experiment: Displacement of [3H]- Ketanserin from rat cortex 5-hydroxytryptamine 2A receptor
Rattus norvegicus [3] = experiment: Dose dependendt inhibition of 8-OH-DPAT(1 mg/kg, sc) induced lower lip retraction(LLR) in rats pre-administered 20 mg/kg ip dose; format: functional; settings: route intraperitoneal
Rattus norvegicus [4] = experiment: Tested for induction of lower lip retraction(LLR) in rats at 20 mg/kg.; format: functional
Rattus norvegicus [5] = experiment: Tested for induction of lower lip retraction(LLR) in rats at 10 mg/kg, ip, given 15 min before the test; format: functional
Rattus norvegicus [6] = experiment: Dose dependendt inhibition of 8-OH-DPAT(1 mg/kg, sc) induced lower lip retraction(LLR) in rats pre-administered 10 mg/kg ip dose; format: functional; settings: route intraperitoneal
Rattus norvegicus [7] = experiment: Tested for induction of lower lip retraction(LLR) in rats at 20 mg/kg, ip, given 15 min before the test; format: functional

Chain of 5-hydroxytryptamine receptor 2A (P14842 whole entry): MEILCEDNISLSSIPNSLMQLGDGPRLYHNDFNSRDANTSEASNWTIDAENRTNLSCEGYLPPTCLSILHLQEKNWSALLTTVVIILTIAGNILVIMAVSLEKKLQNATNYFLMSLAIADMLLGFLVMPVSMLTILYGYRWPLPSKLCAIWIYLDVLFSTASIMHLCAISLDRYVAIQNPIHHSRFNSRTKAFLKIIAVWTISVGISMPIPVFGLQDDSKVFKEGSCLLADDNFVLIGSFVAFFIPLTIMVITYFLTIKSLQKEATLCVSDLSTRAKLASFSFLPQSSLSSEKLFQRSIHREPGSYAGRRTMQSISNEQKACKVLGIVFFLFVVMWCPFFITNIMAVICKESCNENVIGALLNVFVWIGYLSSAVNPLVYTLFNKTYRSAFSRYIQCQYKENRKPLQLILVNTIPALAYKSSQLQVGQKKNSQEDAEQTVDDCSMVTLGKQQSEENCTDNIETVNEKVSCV

| SMILES | Ki [1] [µM] | ED50 (Mus musculus) [mg/kg] | Ki [2] [µM] | Incidence_count (Rattus norvegicus [3]) | Induction (Rattus norvegicus [4]) | Induction (Rattus norvegicus [5]) | Incidence_count (Rattus norvegicus [6]) | Induction (Rattus norvegicus [7]) |
| --- | --- | --- | --- | --- | --- | --- | --- | --- |
| O=C1/C(=C/c2ccc(Cl)cc2)c2ccccc2N1CCCN1CCN(c2cccc(Cl)c2)CC1 | 1.61 | 20 | 0.032 |  |  |  |  |  |
| O=C1Cc2ccccc2N1CCCN1CCN(c2cccc(Cl)c2)CC1 | 0.029 | 6.5 | 0.025 |  |  |  |  |  |
| O=C1/C(=C\c2ccccc2)c2ccccc2N1CCCN1CCN(c2cccc(Cl)c2)CC1 | 0.054 | 27.5 | 0.056 | 0.8 | 0.2 | 0.1 | 1.9 |  |
| O=C1/C(=C/c2cccnc2)c2ccccc2N1CCCN1CCN(c2cccc(Cl)c2)CC1 | 0.101 | 9.5 | 0.007 |  |  |  |  |  |
| O=C1/C(=C/c2cccs2)c2ccccc2N1CCCN1CCN(c2cccc(Cl)c2)CC1 | > 50 | 16 | 0.064 |  |  |  |  |  |
| O=C1/C(=C/c2ccccc2)c2ccccc2N1CCCN1CCN(c2cccc(Cl)c2)CC1 | 0.399 | 28.5 | 0.038 |  |  |  |  |  |
| COc1ccc(/C=C2/C(=O)N(CCCN3CCN(c4cccc(Cl)c4)CC3)c3ccccc32)cc1 | 0.538 | 28.5 | 0.02 |  |  |  |  |  |
| O=C1/C(=C\c2ccc(Cl)cc2)c2ccccc2N1CCCN1CCN(c2cccc(Cl)c2)CC1 | 0.204 | 15 | 0.366 |  |  |  |  |  |
| COc1ccc(/C=C2\C(=O)N(CCCN3CCN(c4cccc(Cl)c4)CC3)c3ccccc32)cc1 |  | 16 | 0.036 |  |  |  |  |  |
| O=C1/C(=C\c2cccs2)c2ccccc2N1CCCN1CCN(c2cccc(Cl)c2)CC1 | 20.5 |  | 0.138 |  |  |  |  |  |
| O=C1/C(=C\c2cccnc2)c2ccccc2N1CCCN1CCN(c2cccc(Cl)c2)CC1 | 0.057 | 27 | 0.02 | 0.9 |  | 0.1 | 2.3 | 0.1 |
| O=C(c1ccc(F)cc1)C1CCN(CCn2c(=O)[nH]c3ccccc3c2=O)CC1 [KETANSERIN] | 1.93 | 0.12 |  |  |  |  |  |  |
